Test results as given in patent US5480902A, “Thienylpyrrole fungicidal agents” (American Cyanamid Company, priority 1993, dated 1996).
Read-outs that look alike come from different tables or passages of the source.

Assays:
[1] = test system: Puccinia recondita f. sp. tritici; assay: In vivo fungicidal activity on host plants, Wheat Leaf Rust (WLR); conditions: 400 ppm; sprayed on host plants before inoculation
Rhizoctonia solani = assay: In vitro fungicidal activity, growth inhibition of ground fungal mycelia (RHIZSO); assay type: cell-based; conditions: 3-4 days at 21° C., averaged when more than one test, read-out: Growth inhibition rating, RHIZSO
Procedure: (§1) Test compounds are dissolved or suspended in acetone and dispersed into cell well plates containing a suspension of ground fungal mycelia in a nutrient broth. Assay plates are incubated for 3-4 days at 21° C. Growth inhibition is measured visually and is rated using the following scale:
(§2) Assay fungi include the plant pathogens, Pythium ultimum (Pythul); Rhizoctonia solani (Rhizso); Fusarium oxysporum f. sp. cucumerinum (Fusoxc); and Pseudocercosporella herpotrichoides (Psdche).
(§3) When more than one test is run, the data are averaged.

Pyricularia oryzae = assay type: in vivo; conditions: sprayed on host plants before inoculation
Pythium ultimum = assay: In vitro fungicidal activity, growth inhibition of ground fungal mycelia (PYTHUL); assay type: cell-based; conditions: Globisporangium ultimum, 3-4 days at 21° C., averaged when more than one test, read-out: Growth inhibition rating, PYTHUL (converted)
Procedure: as §1, §2, §3

[2] = test system: Pseudocercosporella herpotrichoides; assay: In vitro fungicidal activity, growth inhibition of ground fungal mycelia (PSDCHE); assay type: cell-based; conditions: Oculimacula yallundae, 3-4 days at 21° C., averaged when more than one test, read-out: Growth inhibition rating, PSDCHE (converted)
Procedure: as §1, §2, §3

Venturia inaegualis = assay: In vivo fungicidal activity on host plants, Apple Scab (AS); conditions: sprayed on host plants before inoculation
Cercospora beticola = assay: In vivo fungicidal activity on host plants, Sugar Beet Cercospora (SBC); conditions: sprayed on host plants before inoculation; note: ranges in brackets are in %
Botrytis cinerea = assay: In vivo fungicidal activity on host plants, Pepper Botrytis (PB); conditions: sprayed on host plants before inoculation
[3] = test system: Erysiphe graminis f. sp. tritici; assay: In vivo fungicidal activity on host plants, Wheat Powdery Mildew (WPM); conditions: sprayed on host plants before inoculation
Plasmopara viticola = assay: In vivo fungicidal activity on host plants, Grape Downy Mildew (GDM); conditions: sprayed on host plants before inoculation
[4] = test system: Fusarium oxysporum f. sp. cucumerinum; assay: In vitro fungicidal activity, growth inhibition of ground fungal mycelia (FUSOXC); assay type: cell-based; conditions: read-out: Growth inhibition rating, FUSOXC
Procedure: as §1, §2, §3

[5] = 25 ppm, 3-4 days at 21° C., averaged when more than one test

Compound	Disease control rating, WLR [1]	inhibition at 25 ppm (Rhizoctonia solani)	Disease control rating, RB (Pyricularia oryzae; 400 ppm)	inhibition at 25 ppm (Pythium ultimum)	inhibition at 25 ppm [2]	Disease control rating, AS (Venturia inaegualis; 400 ppm)	Disease control rating, SBC (Cercospora beticola; 400 ppm)	Disease control rating, PB (Botrytis cinerea; 400 ppm)	Disease control rating, WPM ([3]; 400 ppm)	Disease control rating, GDM (Plasmopara viticola; 400 ppm)	inhibition at 25 ppm [4]	inhibition at 25 ppm [4, 5]	Disease control rating, GDM (Plasmopara viticola; 200 ppm)	Disease control rating, RB (Pyricularia oryzae; 200 ppm)	Disease control rating, AS (Venturia inaegualis; 200 ppm)	Disease control rating, SBC (Cercospora beticola; 200 ppm)	Disease control rating, PB (Botrytis cinerea; 200 ppm)	Disease control rating, WPM ([3]; 200 ppm)
N#Cc1c(-c2oc3ccccc3c2Cl)[nH]c(Cl)c1Cl [Compound 1, 4,5-Dichloro-2-(3-chloro-2-benzofuranyl)pyrrole-3-carbonitrile]	2 (15-29)	1 to 29%	4 (45-59)	1 to 29%	1 to 29%	0 (0)	0 (0)	2 (15-29)	0 (0)									
N#Cc1cc(C(F)(F)F)[nH]c1-c1cccs1 [Compound 2, 2-(2-Thienyl)-5-(trifluoromethyl)pyrrole-3-carbonitrile]	9 (100)		5 (60-74)	100%		9 (100)	0 (0)		9 (100)	9 (100)								
N#Cc1c(-c2ccc(Br)s2)[nH]c(C(F)(F)F)c1Br [Compound 3, 4-Bromo-2-(5-bromo-2-thienyl)-5-(trifluoromethyl)pyrrole-3-carbonitrile]	9 (100)		0 (0)		30 to 59%	9 (100)			7 (90-95)	9 (100)								
FC(F)(F)c1[nH]c(-c2ccc(Cl)cc2)cc1-c1ccco1 [Compound 4, 5-(p-Chlorophenyl)-3-(2-furyl)-2-(trifluoromethyl)pyrrole]	6 (75-89)		1 (1-14)	60 to 89%	100%	2 (15-29)	0 (0)	0 (0)	0 (0)	8 (96-99)								
O=[N+]([O-])c1ccc(-c2c(C(F)(F)F)[nH]c(-c3ccc(Cl)cc3)c2[N+](=O)[O-])s1 [Compound 5, 2-(p-Chlorophenyl)-3-nitro-4-(5-nitro-2-thienyl)-5-(trifluoromethyl)pyrrole]	6 (75-89)	90 to 99%	0 (0)		60 to 89%	4 (45-59)		0 (0)	0 (0)	9 (100)	30 to 59%							
N#Cc1cc(-c2ccc(Cl)s2)[nH]c1Cl [Compound 6, 2-Chloro-5-(5-chloro-2-thienyl)pyrrole-3-carbonitrile]	6 (75-89)	60 to 89%	0 (0)		60 to 89%	9 (100)	6 (75-89)	0 (0)	0 (0)	7 (90-95)								
N#Cc1c(Cl)[nH]c(-c2ccc(Cl)s2)c1Br [Compound 7, 4-Bromo-2-chloro-5-(5-chloro-2-thienyl)pyrrole-3-carbonitrile]	7 (90-95)	60 to 89%	0 (0)			8 (96-99)	0 (0)	0 (0)	0 (0)	0 (0)		0%						
O=[N+]([O-])c1c(-c2ccc(Cl)cc2)[nH]c(C(F)(F)F)c1-c1csc(Br)c1 [Compound 8, 3-(5-Bromo-3-thienyl)-5-(p-chlorophenyl)-4-nitro-2-(trifluoromethyl)pyrrole]	7 (90-95)	30 to 59%	4 (45-59)	0%	0%	8 (96-99)		0 (0)	0 (0)	9 (100)		0%						
FC(F)(F)c1[nH]c(-c2ccc(Cl)cc2)cc1-c1csc(Br)c1 [Compound 9, 3-(5-Bromo-3-thienyl)-5-(p-chlorophenyl)-2-(trifluoromethyl)pyrrole]	0 (0)	60 to 89%	0 (0)	0%	0%	0 (0)	0 (0)	0 (0)	0 (0)	6 (75-89)		0%						
O=[N+]([O-])c1c(-c2ccc(Cl)cc2)[nH]c(C(F)(F)F)c1-c1csc(Br)c1Br [Compound 10, 2-(p-Chlorophenyl)-4-(4,5-dibromo-3-thienyl)-3-nitro-5-(trifluoromethyl)pyrrole]			7 (90-95)	0%	0%	0 (0)	0 (0)	0 (0)	4 (45-59)	7 (90-95)								
N#Cc1c(-c2cccs2)[nH]c(C(F)(F)F)c1Cl [Compound 12, 4-Chloro-2-(2-thienyl)-5-(trifluoromethyl)pyrrole-3-carbonitrile]		90 to 99%		90 to 99%	0%							0%	8 (96-99)	0 (0)	4 (45-59)	0 (0)	0 (0)	8 (96-99)
CCOCn1c(-c2ccc(Br)s2)c(C#N)c(Br)c1C(F)(F)F [Compound 13, 4-Bromo-2-(5-bromo-2-thienyl)-1-(ethoxymethyl)-5-(trifluoromethyl)pyrrole-3-carbonitrile]		30 to 59%		0%	0%							0%	0 (0)	0 (0)	0 (0)	0 (0)	0 (0)	9 (100)
N#Cc1cc(C(F)(F)F)[nH]c1-c1ccc(Br)o1 [Compound 14, 2-(5-Bromo-2-furyl)-5-(trifluoromethyl)pyrrole-3-carbonitrile]		30 to 59%			0%							0%	6 (75-89)	0 (0)	0 (0)	0 (0)	0 (0)	6 (75-89)
